# Target: T1, human full-length MKNK1 (Homo sapiens, UniProt Q9BUB5, T385D)
# T1 construct: GST (N); purchased Carna Biosciences 02-145; host or cells: insect cells (baculovirus expression system)
# Experiment: MKNK1 kinase high ATP assay (TR-FRET)
# Format: biochemical
# Details: Table 1; MKNK1 kinase high ATP assay, 2 mM ATP; read-out: MKNK1 IC50
# How it was run: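 Full-length human MKNK1 (T385D) preincubated 15 min at 22 °C with compound in HEPES pH 7.5/MgCl2/DTT buffer; reaction with 2 mM ATP (final) and 0.06 μM biotinylated peptide (final), 30 min at 22 °C.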
# T1 sequence (Q9BUB5 1-424 isoform Q9BUB5-2 T344D): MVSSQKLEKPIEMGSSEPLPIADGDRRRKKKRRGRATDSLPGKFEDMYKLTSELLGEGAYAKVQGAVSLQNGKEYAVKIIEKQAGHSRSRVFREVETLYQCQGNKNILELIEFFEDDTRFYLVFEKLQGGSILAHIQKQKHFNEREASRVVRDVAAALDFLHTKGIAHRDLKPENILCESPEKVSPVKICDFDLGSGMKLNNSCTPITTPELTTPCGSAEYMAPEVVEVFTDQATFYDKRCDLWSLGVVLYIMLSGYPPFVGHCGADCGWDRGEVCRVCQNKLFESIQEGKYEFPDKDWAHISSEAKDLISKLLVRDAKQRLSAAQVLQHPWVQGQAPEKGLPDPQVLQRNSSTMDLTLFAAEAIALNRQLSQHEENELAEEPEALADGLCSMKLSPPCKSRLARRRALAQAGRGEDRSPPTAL
row,Compound,IC50
1,"CCCCN(C)C(=O)[C@H]1CCc2c(sc3ncnc(Nc4cc5cn[nH]c5cc4N4CCC(N(C)C)CC4)c23)C1 [Example 105, (7S)—N-Butyl-4-({6-[4-(dimethylamino)piperidin-1-yl]-1H-indazol-5-yl}amino)-N-methyl-5,6,7,8-tetrahydro[1]benzothieno[2,3-d]pyrimidine-7-carboxamide]",14.1 nM
2,"CC(C)Oc1cc2[nH]ncc2cc1Nc1ncnc2sc3c(c12)CC[C@H](C(=O)N1C[C@H]2C[C@@H]1CO2)C3 [Example 87, (1R,4R)-2-Oxa-5-azabicyclo[2.2.1]hept-5-yl[(7S)-4-{[6-(propan-2-yloxy)-1H-indazol-5-yl]amino}-5,6,7,8-tetrahydro[1]benzothieno[2,3-d]pyrimidin-7-yl]methanone]",0.3 nM
3,"C[C@H]1COCCN1C(=O)[C@H]1CCc2c(sc3ncnc(Nc4cc5cn[nH]c5cc4OC4CNC4)c23)C1 [Example 268, [(7S)-4-{[6-(Azetidin-3-yloxy)-1H-indazol-5-yl]amino}-5,6,7,8-tetrahydro[1]benzothieno[2,3-d]pyrimidin-7-yl][(3S)-3-methylmorpholin-4-yl]methanone]",0.6 nM
4,"CN(C)C(=O)[C@H]1CCc2c(sc3ncnc(Nc4cc5cn[nH]c5cc4OC4CCCC4)c23)C1 [Example 199, (7S)-4-{[6-(Cyclopentyloxy)-1H-indazol-5-yl]amino}-N,N-dimethyl-5,6,7,8-tetrahydro[1]benzothieno[2,3-d]pyrimidine-7-carboxamide]",0.2 nM

# Further lines, results first:
row,IC50,Compound
1,192 nM,"CN(C)C1CCN(C(=O)[C@H]2CCc3c(sc4ncnc(Nc5cc6cn[nH]c6cc5OCCN5CCCC5)c34)C2)CC1 [Example 138, [4-(Dimethylamino)piperidin-1-yl][(7S)-4-({6-[2-(pyrrolidin-1-yl)ethoxy]-1H-indazol-5-yl}amino)-5,6,7,8-tetrahydro[1]benzothieno[2,3-d]pyrimidin-7-yl]methanone]"
2,33 nM,"C[C@@H]1CN(C(=O)[C@H]2CCc3c(sc4ncnc(Nc5cc6cn[nH]c6cc5N5CCC(N(C)C)CC5)c34)C2)C[C@H](C)O1 [Example 137, [(7S)-4-({6-[4-(Dimethylamino)piperidin-1-yl]-1H-indazol-5-yl}amino)-5,6,7,8-tetrahydro[1]benzothieno[2,3-d]pyrimidin-7-yl][(2R,6S)-2,6-dimethylmorpholin-4-yl]methanone]"
3,20.6 nM,"CN(C)C1CCN(c2cc3[nH]ncc3cc2Nc2ncnc3sc4c(c23)CC[C@H](C(=O)N2CC3(COC3)C2)C4)CC1 [Example 166, [(7S)-4-({6-[4-(dimethylamino)piperidin-1-yl]-1H-indazol-5-yl}amino)-5,6,7,8-tetrahydro[1]benzothieno[2,3-d]pyrimidin-7-yl](2-oxa-6-azaspiro[3.3]hept-6-yl)methanone]"
4,0.5 nM,"COc1cc2[nH]ncc2cc1Nc1ncnc2sc3c(c12)CC[C@H](C(=O)N1CCC(N(C)CCN(C)C)CC1)C3 [Example 47, (4-{[2-(Dimethylamino)ethyl](methyl)amino}piperidin-1-yl){(7S)-4-[(6-methoxy-1H-indazol-5-yl)amino]-5,6,7,8-tetrahydro[1]benzothieno[2,3-d]pyrimidin-7-yl}methanone]"
5,0.2 nM,"CN(C)C(=O)[C@H]1CCc2c(sc3ncnc(Nc4cc5cn[nH]c5cc4OCCNC(=O)OC(C)(C)C)c23)C1 [Example 165, tert-butyl {2-[(5-{[(7S)-7-(dimethylcarbamoyl)-5,6,7,8-tetrahydro[1]benzothieno[2,3-d]pyrimidin-4-yl]amino}-1H-indazol-6-yl)oxy]ethyl}carbamate]"

# Same assay, conditions: Table 3; example numbers of WO2013/174744(A1), not of this patent; pure enantiomer from chiral HPLC, absolute configuration at amide 'R or S'; read-out: MKNK1 IC50
row,IC50,Compound
1,10.5 nM,"(7S)-4-(1H-Indazol-5-ylamino)-N-methyl-N-(propan-2-yl)-5,6,7,8-tetrahydro[1]benzothieno[2,3-d]pyrimidine-7-carboxamide [Example 7]"

# Same assay, conditions: Table 3; example numbers of WO2013/174744(A1), not of this patent; pure enantiomer from chiral HPLC, absolute configuration at amide 'S or R'; read-out: MKNK1 IC50
row,IC50,Compound
1,4.5 nM,"(7S)-4-(1H-Indazol-5-ylamino)-N-methyl-N-(propan-2-yl)-5,6,7,8-tetrahydro[1]benzothieno[2,3-d]pyrimidine-7-carboxamide [Example 7]"

# Same assay, conditions: Table 3; example numbers of WO2013/174744(A1); ratio of the IC50 values of the two enantiomers
row,Activity Ratio MKNK1,Compound
1,2.3,"(7S)-4-(1H-Indazol-5-ylamino)-N-methyl-N-(propan-2-yl)-5,6,7,8-tetrahydro[1]benzothieno[2,3-d]pyrimidine-7-carboxamide [Example 7]"
